The values below come from US20100028973A1, “METHOD FOR PRO[…] VIRUS, HOLLOW FIBER FOR CULTURING HEPATITIS VIRUS-INFECTED CELLS, AND USE THEREOF” (KYOTO UNIVERSITY, priority 2006, published 2010).

The experiment concerns patient's serum-derived HCV. In words: HCV RNA in HuS-E/2 cells cultured in a hollow fiber and infected with patient's serum-derived HCV, with drug added (Example 5). The class given is cell-based, hepatitis C virus (HCV). The conditions noted are these: NIM811 1 μg/ml; added after 24 hours of infection; HuS-E/2 cells in hollow fiber; collected after 3, 5 and 7 days; PCR. The method, then: HuS-E/2 cells with a density of 1×10^5 cells/well were packed into a lumen of a hollow fiber of a cellulose triacetate hollow fiber module (Toyobo Co., Ltd.; Code: TMHFK-001) by applying a centrifugal force of 80 G for 90 seconds, and then were shake-cultured with use of a 12-well plate. After 24 hours, the culture fluid was replaced with 0.8 ml of a culture fluid, prepared with use of human hepatocellular serum-free culture fluid (Toyobo Co., Ltd.; Code: TMHHM-001), which contained serum-derived HCV with 2×10^5 genome copies/ml. After 24 hours of infection, the culture fluid was removed, and the HuS-E/2 cells were washed with PBS three times. Then, three types of new culture fluid were separately added, namely a culture fluid containing INF alpha (1000 IU/ml), a culture fluid containing NIM811 (1 μg/ml), and a culture fluid containing neither of them. Each of the culture fluids was replaced with a new one every two days. The HuS-E/2 cells were collected after 3, 5, and 7 days of infection with serum-derived HCV, and their total RNA was collected with use of a Sepasol I (Nacalai Tesque, Inc). The total RNA was assayed for HCV RNA by a PCR method.

On to `C/C=C/C[C@@H](C)[C@@H](O)[C@H]1C(=O)N[C@@H](CC)C(=O)N(C)CC(=O)N(C)[C@@H]([C@@H](C)CC)C(=O)N[C@@H](C(C)C)C(=O)N(C)[C@@H](CC(C)C)C(=O)N[C@@H](C)C(=O)N[C@H](C)C(=O)N(C)[C@@H](CC(C)C)C(=O)N(C)[C@@H](CC(C)C)C(=O)N(C)[C@@H](C(C)C)C(=O)N1C` [NIM811], for which the “proliferation of patient's serum-derived HCV in the cells (HCV RNA)” value was “remarkably inhibits”.
